In this experiment the test system is Mycobacterium tuberculosis. Kind of experiment: Antimycobacterial activity against Mycobacterium tuberculosis H37Rv assessed as growth inhibition after 6 days by resazurin MIC assay. The experiment is classed as functional, organism-based. The note with it: for IC50 / IC90 / MIC: Mycobacterium tuberculosis, H37Rv, 144 h. In general terms: Alamar Blue is a resazurin reagent that responds to reducing activity.

Values after ≈ are worked out from the molar mass of the structure shown.

For the compound `CN(C)c1ccc(-c2cc(-c3cc4ccccc4oc3=O)n(C(=O)c3ccncc3)n2)cc1`, the “growth inhibition (GI)” value amounted to 73.82%; the IC50 (in general, the concentration that gives 50% inhibition) stood at 1.21 µg/mL (≈ 2.77 µM); the IC90 (in general, the point of the concentration-response curve where the effect stands at 90%) turned out to be 2.3 µg/mL (≈ 5.27 µM); the MIC (commonly the lowest concentration that inhibits growth of the organism) stood at 2.5 µg/mL (≈ 5.73 µM).

Take `O=C(c1ccncc1)n1nc(-c2ccccc2[N+](=O)[O-])cc1-c1cc2ccccc2oc1=O`: the “growth inhibition (GI)” value stood at 67.83%, the IC50 came to 1.9 µg/mL (≈ 4.33 µM), the IC90 turned out to be 2.74 µg/mL (≈ 6.25 µM) and the MIC turned out to be 2.5 µg/mL (≈ 5.7 µM).

Regarding `Cc1ccc(-c2cc(-c3cc4ccccc4oc3=O)n(C(=O)c3ccncc3)n2)cc1`, the “growth inhibition (GI)” value was determined as 62.63%, the IC50 came to 2.46 µg/mL (≈ 6.04 µM), the IC90 was found to be 2.69 µg/mL (≈ 6.6 µM) and the MIC came to 5 µg/mL (≈ 12.3 µM).

For the compound `COc1ccc(-c2cc(-c3cc4ccccc4oc3=O)n(C(=O)c3ccncc3)n2)cc1`, the “growth inhibition (GI)” value is reported as 66.67%, the IC50 was found to be 1.21 µg/mL (≈ 2.86 µM), the IC90 was 1.35 µg/mL (≈ 3.19 µM) and the MIC worked out at 2.5 µg/mL (≈ 5.9 µM).

As to `COc1cccc(-c2cc(-c3cc4ccccc4oc3=O)n(C(=O)c3ccncc3)n2)c1`, the “growth inhibition (GI)” value was determined as 65.14%, the IC50 amounted to 1.17 µg/mL (≈ 2.76 µM), the IC90 is 1.29 µg/mL (≈ 3.05 µM) and the MIC was 1.25 µg/mL (≈ 2.95 µM).

Consider `CO[C@H]1/C=C/O[C@@]2(C)Oc3c(C)c(O)c4c(O)c(c(/C=N/N5CCN(C)CC5)c(O)c4c3C2=O)NC(=O)/C(C)=C\C=C\[C@H](C)[C@H](O)[C@@H](C)[C@@H](O)[C@@H](C)[C@H](OC(C)=O)[C@@H]1C` [RIFAMPIN], for which the MIC came to 0.003 µg/mL (≈ 0.00365 µM).

Regarding `NNC(=O)c1ccncc1` [ISONIAZID], the MIC was determined as 0.06 µg/mL (≈ 0.438 µM).

On to `O=C(c1ccncc1)n1nc(-c2ccc(F)cc2)cc1-c1cc2ccccc2oc1=O`, for which the “growth inhibition (GI)” value was 80.09%, the half-inhibitory concentration (IC50) came to 0.41 µg/mL (≈ 0.997 µM), the IC90 stood at 0.73 µg/mL (≈ 1.77 µM) and the MIC is 0.625 µg/mL (≈ 1.52 µM).

For the compound `O=C(c1ccncc1)n1nc(-c2ccc(Cl)cc2Cl)cc1-c1cc2ccccc2oc1=O`, the “growth inhibition (GI)” value worked out at 69.09%, the IC50 amounted to 0.74 µg/mL (≈ 1.6 µM), the IC90 was 1.46 µg/mL (≈ 3.16 µM) and the MIC was found to be 1.25 µg/mL (≈ 2.7 µM).

Turning to `O=C(c1ccncc1)n1nc(-c2cccc([N+](=O)[O-])c2)cc1-c1cc2ccccc2oc1=O`, the “growth inhibition (GI)” value was found to be 65.39%, the IC50 was 0.89 µg/mL (≈ 2.03 µM), the IC90 came to 1.67 µg/mL (≈ 3.81 µM) and the MIC amounted to 1.25 µg/mL (≈ 2.85 µM).

On to `O=C(c1ccncc1)n1nc(-c2ccc(Cl)cc2)cc1-c1cc2ccccc2oc1=O`, for which the “growth inhibition (GI)” value came to 75.39%, the IC50 came to 0.75 µg/mL (≈ 1.75 µM), the IC90 was determined as 1.22 µg/mL (≈ 2.85 µM) and the MIC turned out to be 1.25 µg/mL (≈ 2.92 µM).

For the compound `O=C(c1ccncc1)n1nc(-c2ccc(O)cc2)cc1-c1cc2ccccc2oc1=O`, the “growth inhibition (GI)” value worked out at 69.91%, the IC50 was 1.51 µg/mL (≈ 3.69 µM), the IC90 was 2.85 µg/mL (≈ 6.96 µM) and the MIC is 2.5 µg/mL (≈ 6.11 µM).

For the compound `O=C(c1ccncc1)n1nc(-c2ccccc2)cc1-c1cc2ccccc2oc1=O`, the “growth inhibition (GI)” value turned out to be 73.53%, the half-maximal inhibitory concentration (IC50) turned out to be 1.92 µg/mL (≈ 4.88 µM), the IC90 was determined as 2.26 µg/mL (≈ 5.74 µM) and the minimum inhibitory concentration (MIC) is 2.5 µg/mL (≈ 6.35 µM).

These data come from ChEMBL document CHEMBL3046118, “Coumarinyl pyrazole derivatives of INH: promising antimycobacterial agents” (Med Chem Res, 2013).
